Converted amounts (≈) assume the structure as drawn. Where a SMILES comes first, the peptide text is derived from it. Bridges are numbered along the chain shown (N, C = ends). [ ]: non-standard residue; d: D form. The star is where a group is joined. Ileψ(thiazoline)Cys = CC[C@H](C)[C@H](N)C1=N[C@H](C(=O)*)CS1; dOrn = NCCC[C@@H](N)C(=O)O
Experiments:
Assay type in all cases: functional
Staphylococcus aureus [1] = assay: Induction of Ppbp2::lacZ gene expression in Staphylococcus aureus SH1000 at 13.4 ug/ml after 2 hrs by beta-galactosidase reporter gene assay relative to untreated control
Staphylococcus aureus [2] = assay: Induction of PsgtB::lacZ gene expression in Staphylococcus aureus SH1000 at 13.4 ug/ml after 2 hrs by beta-galactosidase reporter gene assay relative to untreated control
Staphylococcus aureus [3] = assay: Induction of PtcaA::lacZ gene expression in Staphylococcus aureus SH1000 at 13.4 ug/ml after 2 hrs by beta-galactosidase reporter gene assay relative to untreated control
Staphylococcus aureus [4] = assay: Antimicrobial activity against beta-lactamase producing Staphylococcus aureus SH1000
Staphylococcus aureus [5] = assay: Induction of PvraSr::lacZ gene expression in Staphylococcus aureus SH1000 at 13.4 ug/ml after 2 hrs by beta-galactosidase reporter gene assay relative to untreated control
Staphylococcus aureus [6] = assay: Induction of PlytR::lacZ gene expression in Staphylococcus aureus SH1000 at 13.4 ug/ml after 2 hrs by beta-galactosidase reporter gene assay relative to untreated control
Staphylococcus aureus [7] = assay: Induction of Ppbp2::lacZ gene expression in Staphylococcus aureus SH1000 at 2.5 ug/ml after 2 hrs by beta-galactosidase reporter gene assay relative to untreated control
Staphylococcus aureus [8] = assay: Induction of PlytR::lacZ gene expression in Staphylococcus aureus SH1000 at 2.5 ug/ml after 2 hrs by beta-galactosidase reporter gene assay relative to untreated control
Staphylococcus aureus [9] = assay: Induction of PvraSr::lacZ gene expression in Staphylococcus aureus SH1000 at 2.5 ug/ml after 2 hrs by beta-galactosidase reporter gene assay relative to untreated control
Staphylococcus aureus [10] = assay: Induction of PsgtB::lacZ gene expression in Staphylococcus aureus SH1000 at 2.5 ug/ml after 2 hrs by beta-galactosidase reporter gene assay relative to untreated control
Staphylococcus aureus [11] = assay: Induction of PtcaA::lacZ gene expression in Staphylococcus aureus SH1000 at 2.5 ug/ml after 2 hrs by beta-galactosidase reporter gene assay relative to untreated control
Staphylococcus aureus [12] = assay: Induction of PvraSr::lacZ gene expression in Staphylococcus aureus SH1000 at 2 ug/ml after 2 hrs by beta-galactosidase reporter gene assay relative to untreated control
Staphylococcus aureus [13] = assay: Induction of PsgtB::lacZ gene expression in Staphylococcus aureus SH1000 at 2 ug/ml after 2 hrs by beta-galactosidase reporter gene assay relative to untreated control
Staphylococcus aureus [14] = assay: Induction of Ppbp2::lacZ gene expression in Staphylococcus aureus SH1000 at 2 ug/ml after 2 hrs by beta-galactosidase reporter gene assay relative to untreated control
Staphylococcus aureus [15] = assay: Induction of PtcaA::lacZ gene expression in Staphylococcus aureus SH1000 at 2 ug/ml after 2 hrs by beta-galactosidase reporter gene assay relative to untreated control
Staphylococcus aureus [16] = assay: Induction of PlytR::lacZ gene expression in Staphylococcus aureus SH1000 at 2 ug/ml after 2 hrs by beta-galactosidase reporter gene assay relative to untreated control
Staphylococcus aureus [17] = assay: Induction of PvraSr::lacZ gene expression in Staphylococcus aureus SH1000 at 1 ug/ml after 2 hrs by beta-galactosidase reporter gene assay relative to untreated control
Staphylococcus aureus [18] = assay: Induction of Ppbp2::lacZ gene expression in Staphylococcus aureus SH1000 at 1 ug/ml after 2 hrs by beta-galactosidase reporter gene assay relative to untreated control
Staphylococcus aureus [19] = assay: Induction of PsgtB::lacZ gene expression in Staphylococcus aureus SH1000 at 1 ug/ml after 2 hrs by beta-galactosidase reporter gene assay relative to untreated control
Staphylococcus aureus [20] = assay: Induction of PtcaA::lacZ gene expression in Staphylococcus aureus SH1000 at 1 ug/ml after 2 hrs by beta-galactosidase reporter gene assay relative to untreated control
Staphylococcus aureus [21] = assay: Induction of PlytR::lacZ gene expression in Staphylococcus aureus SH1000 at 1 ug/ml after 2 hrs by beta-galactosidase reporter gene assay relative to untreated control

Q: How did the “fold change (FC)” value (Staphylococcus aureus [1]) turn out when `CC[C@H](C)[C@H](N)C1=N[C@H](C(=O)N[C@@H](CC(C)C)C(=O)N[C@H](CCC(=O)O)C(=O)N[C@H](C(=O)N[C@H]2CCCCNC(=O)[C@H](CC(N)=O)NC(=O)[C@@H](CC(=O)O)NC(=O)[C@H](Cc3cnc[nH]3)NC(=O)[C@@H](Cc3ccccc3)NC(=O)[C@H]([C@@H](C)CC)NC(=O)[C@@H](CCCN)NC2=O)[C@@H](C)CC)CS1` [BACITRACIN] ({Ileψ(thiazoline)Cys}-L[dE]IK[dOrn]I[dF]H[dD]N; lactam 4-C) was run?
A: 3.7

Q: And the “fold change (FC)” value (Staphylococcus aureus [2])?
A: 4.63

Q: And the “fold change (FC)” value (Staphylococcus aureus [3])?
A: 3.99

Q: What about the MIC (Staphylococcus aureus [4]) of the same molecule?
A: 2 mg/L (≈ 1.41 µM)

Q: What about the “fold change (FC)” value (Staphylococcus aureus [5]) of the same molecule?
A: 1.92

Q: What about the “fold change (FC)” value (Staphylococcus aureus [6]) of the same molecule?
A: 1.94

Q: What does the source list for `CC[C@H]1OC(=O)[C@H](C)[C@@H](O[C@H]2C[C@@](C)(OC)[C@@H](O)[C@H](C)O2)[C@H](C)[C@@H](O[C@@H]2O[C@H](C)C[C@H](N(C)C)[C@H]2O)[C@](C)(O)C[C@@H](C)C(=O)[C@H](C)[C@@H](O)[C@]1(C)O` [ERYTHROMYCIN]?
A: fold change (FC) (Staphylococcus aureus [7]): 1.15; fold change (FC) (Staphylococcus aureus [8]): 1.04; fold change (FC) (Staphylococcus aureus [9]): 0.8; MIC (Staphylococcus aureus [4]): 2 mg/L (≈ 2.73 µM); fold change (FC) (Staphylococcus aureus [10]): 0.93; fold change (FC) (Staphylococcus aureus [11]): 1.12

Q: `CN(C)[C@@H]1C(O)=C(C(N)=O)C(=O)[C@@]2(O)C(O)=C3C(=O)c4c(O)cccc4[C@@](C)(O)[C@H]3C[C@@H]12` [TETRACYCLINE] was tested. Which “fold change (FC)” value (Staphylococcus aureus [12]) did it give?
A: 0.52

Q: What about the “fold change (FC)” value (Staphylococcus aureus [13]) of the same molecule?
A: 0.4

Q: And the MIC (Staphylococcus aureus [4])?
A: 0.5 mg/L (≈ 1.13 µM)

Q: What about the “fold change (FC)” value (Staphylococcus aureus [14]) of the same molecule?
A: 0.52

Q: And the “fold change (FC)” value (Staphylococcus aureus [15])?
A: 0.53

Q: And the “fold change (FC)” value (Staphylococcus aureus [16])?
A: 0.5

Q: `C=C(NC(=O)[C@@H](NC(=O)[C@H](Cc1cnc[nH]1)NC(=O)[C@@H](NC(=O)[C@H](CO)NC(=O)[C@@H]1CS[C@@H](C)[C@H]2NC(=O)C(=C)NC(=O)[C@H](NC(=O)[C@H](CCCCN)NC(=O)[C@H](CCSC)NC(=O)[C@H](CC(N)=O)NC(=O)[C@@H]3CS[C@@H](C)[C@@H](NC(=O)[C@H](CCCNN)NC(=O)[C@@H]4CS[C@@H](C)[C@@H](NC(=O)[C@@H]5CSC[C@@H](NC(=O)/C(=C\C)NC(=O)[C@@H](N)[C@@H](C)CC)C(=O)N[C@@H]([C@@H](C)CC)C(=O)NC(=C)C(=O)N[C@@H]([C@@H](C)CC)C(=O)N5)C(=O)N5CCC[C@H]5C(=O)NCC(=O)N4)C(=O)NCC(=O)N[C@@H](C)C(=O)N[C@@H]([C@@H](C)CC)C(=O)N[C@@H](CCSC)C(=O)NCC(=O)N3)[C@H](C)SC[C@H](NC2=O)C(=O)N[C@H](Cc2cnc[nH]2)C(=O)N1)[C@@H](C)CC)C(C)C)C(=O)N[C@@H](CCCCN)C(=O)O` [NISIN] was tested. Which “fold change (FC)” value (Staphylococcus aureus [17]) did it give?
A: 0.57

Q: What about the “fold change (FC)” value (Staphylococcus aureus [18]) of the same molecule?
A: 1.02

Q: What about the “fold change (FC)” value (Staphylococcus aureus [19]) of the same molecule?
A: 1.02

Q: What about the “fold change (FC)” value (Staphylococcus aureus [20]) of the same molecule?
A: 0.97

Q: And the “fold change (FC)” value (Staphylococcus aureus [21])?
A: 1.21

Q: With `COc1cc(Cc2cnc(N)nc2N)cc(OC)c1OC` [TRIMETHOPRIM] as the molecule, how does the “fold change (FC)” value (Staphylococcus aureus [17]) read?
A: 0.9

Q: And the “fold change (FC)” value (Staphylococcus aureus [18])?
A: 0.88

Q: What about the “fold change (FC)” value (Staphylococcus aureus [19]) of the same molecule?
A: 1.19

Q: What about the “fold change (FC)” value (Staphylococcus aureus [20]) of the same molecule?
A: 1.24

Q: And the “fold change (FC)” value (Staphylococcus aureus [21])?
A: 0.92

Reference: ChEMBL document CHEMBL1275483, “Staphylococcus aureus cell wall stress stimulon gene-lacZ fusion strains: potential for use in screening for cell wall-active antimicrobials” (2008)
